Assay type in all cases: protein-complex assay
The target in experiment [1] is T1, Ecdysone receptor (Nezara viridula, UniProt E5L6Y0+E5L6Y1).
T1 sequence (E5L6Y1 whole entry): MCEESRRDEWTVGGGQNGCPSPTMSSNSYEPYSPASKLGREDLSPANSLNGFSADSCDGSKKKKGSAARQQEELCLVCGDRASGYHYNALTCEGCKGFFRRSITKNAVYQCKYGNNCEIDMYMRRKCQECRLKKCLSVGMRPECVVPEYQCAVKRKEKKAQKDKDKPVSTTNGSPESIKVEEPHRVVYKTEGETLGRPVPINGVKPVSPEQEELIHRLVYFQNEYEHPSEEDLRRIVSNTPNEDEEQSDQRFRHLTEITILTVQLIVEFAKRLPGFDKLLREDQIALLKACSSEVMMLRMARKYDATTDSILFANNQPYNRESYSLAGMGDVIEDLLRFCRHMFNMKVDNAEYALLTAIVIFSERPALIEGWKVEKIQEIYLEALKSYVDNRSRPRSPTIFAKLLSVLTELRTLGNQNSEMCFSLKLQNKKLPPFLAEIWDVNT
T1 sequence (E5L6Y0 whole entry): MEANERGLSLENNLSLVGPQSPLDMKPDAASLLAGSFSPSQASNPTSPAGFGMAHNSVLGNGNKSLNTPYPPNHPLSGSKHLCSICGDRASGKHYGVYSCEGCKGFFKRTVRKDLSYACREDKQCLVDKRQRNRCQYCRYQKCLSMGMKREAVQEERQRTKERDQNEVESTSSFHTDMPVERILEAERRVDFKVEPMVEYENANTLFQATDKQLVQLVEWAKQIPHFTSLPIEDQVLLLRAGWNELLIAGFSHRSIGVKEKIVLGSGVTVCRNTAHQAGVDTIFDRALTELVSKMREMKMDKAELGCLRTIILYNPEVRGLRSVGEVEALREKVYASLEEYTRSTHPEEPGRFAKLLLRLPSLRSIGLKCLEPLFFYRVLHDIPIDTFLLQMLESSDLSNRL
The experiment is described as follows: Binding affinity to Nezara viridula EcR10.

Experiment [2] deals with T2, Ecdysone receptor (Chironomus tentans, UniProt O45117+P49882).
T2 sequence (P49882 whole entry): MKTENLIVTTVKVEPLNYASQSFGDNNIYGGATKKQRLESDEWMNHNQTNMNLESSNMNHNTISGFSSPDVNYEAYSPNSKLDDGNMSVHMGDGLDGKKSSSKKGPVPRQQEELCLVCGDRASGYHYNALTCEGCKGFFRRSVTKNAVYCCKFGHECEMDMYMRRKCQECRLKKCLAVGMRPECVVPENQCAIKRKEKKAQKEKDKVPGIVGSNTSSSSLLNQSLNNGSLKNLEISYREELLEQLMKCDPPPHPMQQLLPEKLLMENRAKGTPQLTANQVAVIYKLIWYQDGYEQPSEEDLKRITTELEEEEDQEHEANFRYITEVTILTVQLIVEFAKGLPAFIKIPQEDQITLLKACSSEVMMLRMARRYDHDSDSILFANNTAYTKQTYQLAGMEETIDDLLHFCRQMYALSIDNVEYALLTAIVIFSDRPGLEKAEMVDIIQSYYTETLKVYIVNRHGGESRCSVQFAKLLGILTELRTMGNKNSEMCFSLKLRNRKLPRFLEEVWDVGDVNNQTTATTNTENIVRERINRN
T2 sequence (O45117 whole entry): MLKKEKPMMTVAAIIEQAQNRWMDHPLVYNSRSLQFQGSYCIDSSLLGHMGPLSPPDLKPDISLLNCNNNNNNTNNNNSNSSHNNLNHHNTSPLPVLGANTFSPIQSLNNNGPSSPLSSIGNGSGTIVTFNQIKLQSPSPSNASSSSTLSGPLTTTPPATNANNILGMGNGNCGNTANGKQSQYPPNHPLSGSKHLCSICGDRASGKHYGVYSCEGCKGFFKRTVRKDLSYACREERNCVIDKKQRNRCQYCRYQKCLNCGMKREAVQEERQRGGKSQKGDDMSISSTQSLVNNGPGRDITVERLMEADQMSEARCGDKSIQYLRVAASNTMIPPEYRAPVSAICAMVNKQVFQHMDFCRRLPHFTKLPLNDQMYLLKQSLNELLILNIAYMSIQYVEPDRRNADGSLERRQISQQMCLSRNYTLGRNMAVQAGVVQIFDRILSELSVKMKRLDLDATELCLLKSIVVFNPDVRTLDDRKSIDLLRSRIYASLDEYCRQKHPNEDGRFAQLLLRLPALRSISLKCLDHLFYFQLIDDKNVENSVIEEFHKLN
The experiment in a line: Binding affinity to Chironomus tentans EcR.

The target of experiment [3] is T3, Ecdysone receptor (Locusta migratoria, UniProt O97095+Q6V7U7).
T3 sequence (O97095 whole entry): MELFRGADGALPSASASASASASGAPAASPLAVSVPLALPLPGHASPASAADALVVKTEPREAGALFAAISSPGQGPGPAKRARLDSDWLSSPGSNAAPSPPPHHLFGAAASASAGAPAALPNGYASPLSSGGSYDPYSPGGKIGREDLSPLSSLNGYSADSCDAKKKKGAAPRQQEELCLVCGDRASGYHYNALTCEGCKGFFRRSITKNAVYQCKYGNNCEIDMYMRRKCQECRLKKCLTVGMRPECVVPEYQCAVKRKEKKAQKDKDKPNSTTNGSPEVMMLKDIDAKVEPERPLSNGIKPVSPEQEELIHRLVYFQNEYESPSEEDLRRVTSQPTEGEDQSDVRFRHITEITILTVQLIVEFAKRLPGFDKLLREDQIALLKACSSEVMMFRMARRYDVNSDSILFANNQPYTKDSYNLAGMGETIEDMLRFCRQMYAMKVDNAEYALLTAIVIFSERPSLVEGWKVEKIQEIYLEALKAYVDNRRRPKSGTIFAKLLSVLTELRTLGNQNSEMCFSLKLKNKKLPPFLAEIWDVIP
T3 sequence (Q6V7U7 whole entry): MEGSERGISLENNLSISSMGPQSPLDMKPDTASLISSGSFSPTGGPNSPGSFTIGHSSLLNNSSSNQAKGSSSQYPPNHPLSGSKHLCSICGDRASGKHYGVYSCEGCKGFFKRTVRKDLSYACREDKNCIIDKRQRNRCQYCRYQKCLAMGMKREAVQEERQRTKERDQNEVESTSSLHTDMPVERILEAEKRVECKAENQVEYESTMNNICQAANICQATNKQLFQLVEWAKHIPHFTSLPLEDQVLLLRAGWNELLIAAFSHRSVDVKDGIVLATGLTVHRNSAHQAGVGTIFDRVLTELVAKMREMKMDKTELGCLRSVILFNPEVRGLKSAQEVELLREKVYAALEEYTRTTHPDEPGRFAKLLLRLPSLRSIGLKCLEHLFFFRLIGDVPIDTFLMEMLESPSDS
The experiment is described as follows: Binding affinity to Locusta migratoria ecdysone receptor (EcR).

Structures are written as SMILES.

For `CCc1ccc(C(=O)NN(C(=O)c2cc(C)cc(C)c2)C(C)(C)C)cc1` [TEBUFENOZIDE], the Ki in experiment [1] was 20 µM; in experiment [2], 0.01 µM; in experiment [3], 100 µM.

The record behind these values is ChEMBL document CHEMBL3045439, “Isoforms of the heteropteran Nezara viridula ecdysone receptor: protein characterisation, RH5992 insecticide binding and homology modelling” (Pest Manag Sci, 2011).
